In assay [1] the test system is S. cerevisiae. As to the kind of experiment: Yeast respiration assay in S. cerevisiae (MIC in YPD / YPGE). The note with it: 30° C.; for MIC: Saccharomyces cerevisiae. In kind it is cell-based, Saccharomyces cerevisiae. On the procedure: Yeast respiration assays were conducted either in liquid YPD media (BD Bacto Yeast Extract, BD Bacto Peptone, 2% glucose) or in YPGE media (BD Bacto Yeast Extract, BD Bacto Peptone, 3% glycerol, 3% ethanol), essentially as described for the antifungal MIC assays (see below). To initiate these experiments, 100 μl of a fresh stock solution was prepared for each compound (3.2 mg/ml for Amphotericin B and 12.8 mg/ml for each test compounds) in DMSO. This concentrated stock solution was placed in the first well of 12-well row on a 96-well plate. The subsequent nine wells in this row contained 50 μl of DMSO for serial dilution. From the first well, 50 μl of the compound stock was withdrawn, transferred to the second well and mixed. This process was repeated from the second and subsequent wells, resulting in a 1:2 serial dilution of the stock into DMSO. Wells 11 and 12 contained DMSO only, to be used as no compound control and sterility control, with no inoculum added, respectively. After preparing this plate, 2.5 μl from each of the 12 wells was transferred to the wells of a separate 96-well plate, each of which contained 122.5 μl of YPD or YPGE medium, resulting in a set of serial dilutions of compound into growth media in a volume of 125 μl. Then 50 μl from each of these dilutions were transferred onto a third 96-well plate (the assay plate) and mixed with an equal volume (50 μl) of freshly prepared yeast inoculum in YPD or YPGE medium set to provide 0.5×10^3 to 2.5×10^3 colony forming units per 1 mL (wells 1-11), or YPD/YPGE alone (sterility control, well 12). The final compound concentration range of the assay was 0.25-128 μg/ml for test compounds and 0.0625-32 μg/ml for Amphotericin B. The final concentration of DMSO was 1%. Plates were incubated at 30° C. and visually analyzed for turbidity after 24 and 48 hours of incubation. The lowest compound concentration at which no growth was apparent is reported as the MIC (Table 1). All experiments were performed in triplicate.

The test system of assay [2] is C. parapsilosis. As to the kind of experiment: MIC determination against C. parapsilosis. In kind it is cell-based, Candida parapsilosis. The note with it: RPMI-1640, 35° C. or 37° C., turbidity after 24 and 48 hours; for MIC: Lodderomyces parapsilosis. The method, boiled down: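 Broth microdilution in RPMI-1640 with C. parapsilosis at 0.5×10^3 to 2.5×10^3 CFU/mL; test compounds 0.25-128 μg/ml final, 1% DMSO. Plates incubated at 35° C or 37° C, turbidity read visually at 24 and 48 h. MIC = lowest concentration without visible growth; triplicates.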

The subject of assay [3] is HEK-293T cells. As to the kind of experiment: Cytotoxicity in HEK-293T cells (Cell Titer Glo). Type of assay: cell-based, human. The note with it: Homo sapiens, cytotoxicity, 24 hours with compound, read-out: IC50 HEK-293. A general note: ATP-based viability assays read luminescence as a measure of living cells.
In assay [4] the target is ai5γ group II intron. Briefly: Radioanalytic self-splicing assay of SE RNA (Ki). The settings on record: 8 mM MgCl2, 100 mM KCl, pH 7.5, 30° C. Type of assay: biochemical, Saccharomyces cerevisiae. As for the experimental part:
Internally labeled SE RNA (2 nM) was incubated with various concentrations of inhibitor compound under near-physiological conditions (in 50 mM MOPS, pH 7.5, 8 mM MgCl2, 100 mM KCl) at 30° C. Aliquots at different time points were quenched and analyzed on 5% denaturing polyacrylamide gel as previously described (Daniels et al., 1996, Journal of molecular biology, 256:31-49). Data were fit to a single-exponential equation to determine the first order rate constants (kobs). The latter were then plotted against the concentration of the inhibitor and fit to the equation for non-competitive inhibition to determine Ki values: kobs=kmax/(1+[I]/Ki), where kobs and kmax are the first order rate constants measured in the presence and in the absence of the inhibitor, respectively, [I] is the concentration of the inhibitor and Ki is the inhibition constant. Experiments were performed four times for API-014, three times for APY-090, Intronistat A, and Intronistat B and twice for the remaining compounds to ensure reproducibility. Data represent average±s.e.m.

The test system of assay [5] is ai5γ group II intron (D135 ribozyme). As to the kind of experiment: Fluorescent D135 ribozyme cleavage assay (IC50). In kind it is biochemical, Saccharomyces cerevisiae. The settings on record: for IC50: D135 ribozyme cleavage of substrate 17/2 DL, 100 mM MgCl2, 500 mM KCl, 37° C., 10 minutes; for In vitro inhibitory activity, SAR statement (in words): relative to parent scaffold. The method, boiled down:
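D135 ribozyme (20 nM) with double-labeled substrate 17/2 DL (20 nM) in 50 mM MOPS pH 7.0, 100 mM MgCl2, 0.5 M KCl; 19 inhibitor concentrations, 5 nM–1 mM, 10 min at 37 °C, EDTA quench, fluorescence read. Triplicates fit to 4-parameter logistic for IC50; mean±s.e.m.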

In assay [6] the test system is C. parapsilosis COX1 group IIB intron. Briefly: Group II intron splicing in C. parapsilosis by qRT-PCR. In kind it is cell-based, Candida parapsilosis. The note with it: 32 μg/mL. A general note: Quantitative PCR measures a nucleic acid by following its amplification.

≈ marks a conversion by molar mass, not a printed value. Entries after “also recorded” stand apart in the source; their conditions may differ. Like-named read-outs stand apart in the source and are kept apart here.

With `C[C@@H]1[C@H](O)[C@@H](C)/C=C/C=C/C=C/C=C/C=C/C=C/C=C/[C@H](O[C@@H]2O[C@H](C)[C@@H](O)[C@H](N)[C@@H]2O)C[C@@H]2O[C@](O)(C[C@@H](O)C[C@@H](O)[C@H](O)CC[C@@H](O)C[C@@H](O)CC(=O)O[C@H]1C)C[C@H](O)[C@H]2C(=O)O` [Amphotericin B, reference compound], in assay [1] (YPD medium), the “MIC in YPD (glucose)” value was determined as 2 µg/mL (≈ 2.16 µM). In assay [1] (YPGE medium), the “MIC in YPGE (glycerol)” value came to 16 µg/mL (≈ 17.3 µM). Also, the “MIC C. parapsilosis” value in assay [2] lay within 0.5 to 1 µg/mL.

As for `O=C1/C(=C/c2cc(O)c(O)c(O)c2)Oc2cccc(O)c21` [APY-019, (Z)-4-Hydroxy-2-(3,4,5-trihydroxybenzylidene)benzofuran-3(2H)-one], the MIC in assay [1] (YPD medium, read-out: MIC in YPD (glucose)) is over 128 µg/mL; in assay [1] (YPGE medium, read-out: MIC in YPGE (glycerol)), 64 µg/mL (≈ 224 µM); in assay [2], 16 µg/mL (≈ 55.9 µM). For the same compound, in assay [3], the IC50 is over 32 µg/mL.

With `O=C(c1cc(O)c(O)c(O)c1)c1cc2cc(Cl)cc(Cl)c2o1` [APY-083, 5-[(5,7-Dichloro-1-benzofuran-2-yl)carbonyl]benzene-1,2,3-triol], the IC50 in assay [3] worked out at 0.5 ± 0.1 µg/mL. The Ki in assay [4] came to 0.9 ± 0.1 µM. Further, in assay [5], the IC50 was 3.3 ± 0.3 µM and the “In vitro inhibitory activity, SAR statement (in words)” value is “without significant loss of function”. The compound also yielded an MIC in assay [2] of 8 µg/mL (≈ 23.6 µM).

In the case of `CCN(CC)CCNC(=O)c1ccc2oc(C(=O)c3cc(O)c(O)c(O)c3)cc2c1` [NED-2019, N-(2-(diethylamino)ethyl)-2-(3,4,5-trihydroxybenzoyl)-benzofuran-5-carboxamide], the half-inhibitory concentration (IC50) in assay [3] was over 64 µg/mL; in assay [5] it was 4.8 ± 0.5 µM. For the same compound, in assay [4], the affinity, expressed as Ki, was 0.49 ± 0.03 µM. Besides, the MIC in assay [2] was 8 µg/mL (≈ 19.4 µM).

For the compound `COc1ccc(/C=C2\Oc3cc(O)cc(O)c3C2=O)cc1OC` [APY-001, (Z)-2-(3,4-Dimethoxybenzylidene)-4,6-dihydroxybenzofuran-3(2H)-one], the IC50 in assay [3] is over 128 µg/mL. In addition, in assay [6], the “Splicing of C. parapsilosis COX1 in vivo (in words)” value was “this effect was not observed; also recorded: inactive”. Moreover, the Ki in assay [4] was over 1000 µM. Also, in assay [5], the IC50 was over 100 µM and the “In vitro inhibitory activity, SAR statement (in words)” value is reported as “nearly complete loss of activity”. The MIC in assay [2] is over 128 µg/mL.

For orientation: MIC means the lowest concentration that inhibits growth of the organism. As a reminder, the IC50 is the point on the concentration scale where inhibition reaches its midpoint. As usually defined, the Ki is a measure of affinity in units of concentration, obtained from inhibition or displacement.

For the origin of these results see patent US12421257B2, “Compositions and methods for inhibiting group II intron RNA” (YALE UNIVERSITY, priority 2018, dated 2025).
